# Assay results published in US10028992B2, “Methods of treating muscular dystrophy” (BOARD OF REGENTS OF THE NEVADA SYSTEM OF HIGHER EDUCATION …, priority 2012, dated 2018).
# Tested on: α7 integrin promoter
# Assay: muscle cell-based assay: α7βgal+/− myoblasts/myotubes, LacZ reporter, β-galactosidase cleavage of FDG
# Parameters: species or system mouse; Results in α7+/− β-galactosidase assay: scale not given here
# Conditions: Myoblasts
# In short: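 Fluorescein generated from FDG by β-galactosidase reports α7 integrin promoter activity in differentiated myoblasts from α7+/− LacZ knock-in pups. Screening hits then went to dose-response, western blotting and a myostatin counterscreen.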
Structure (SMILES),Results in α7+/− β-galactosidase assay (0.5 uM),Results in α7+/− β-galactosidase assay (1 uM),Results in α7+/− β-galactosidase assay (5 uM),Results in α7+/− β-galactosidase assay (10 uM),Results in α7+/− β-galactosidase assay (20 uM),Results in α7+/− β-galactosidase assay (40 uM)
COC(=O)c1ccc(/N=N/c2ccccc2)cc1 [drawing 613],0.1047,0.17,−0.07402,−0.1217,−0.1237,−0.2361
CN(CCC1CCCCO1)C(=O)CCc1nnc(CCCCc2ccccc2)o1 (stereo not drawn) [drawing 615],−0.05982,−0.07538,−0.00182,−0.02349,0.02509,−0.00588
c1ccc(-c2nn[nH]n2)nc1 [drawing 616],−0.1138,−0.161,0.4758,−0.06661,0.6134,−0.02456
O=C(N/N=C/c1c[nH]c2ccccc12)c1cc(Cl)ccc1O [drawing 617],−0.1174,−0.2374,0.2235,−0.05174,−0.06378,−0.0655
O=C(O)C(Cc1ccc(O)cc1)N1C(=O)c2ccccc2C1=O (stereo not drawn) [drawing 619],0.1486,0.2007,0.1591,−0.04895,0.03548,0.007087
CCN(CC)C(=O)c1sc2nc(-c3ccc(OC)cc3)cn2c1C [drawing 620],−0.00349,−0.01981,−0.06604,−0.2175,−0.4369,−0.6089
Cc1ccsc1-c1nnc(S)n1C1CCCCC1 [drawing 621],0.007736,0.002953,0.06001,−0.06828,−0.1538,−0.1034
O=C(N[C@@H](Cc1c[nH]c2ccccc12)C(=O)O)C1CCN(S(=O)(=O)c2cccs2)CC1 [drawing 622],−0.07999,−0.01966,−0.1194,−0.09397,−0.02534,−0.04251
COC(=O)Cn1c(=O)c2c(nc3n2CC(C)CN3Cc2ccccc2)n(C)c1=O (stereo not drawn) [drawing 623],−0.176,−0.2606,−0.02637,−0.1756,−0.2725,−0.3826
CCOC(=O)c1cc(C(=O)OCC)c(SCc2ccccc2)nc1O [drawing 624],−0.1519,−0.22,0.001928,−0.1374,−0.174,−0.1694
Oc1nc2ccccc2nc1-c1c[nH]c2ccccc12 [drawing 625],−0.1557,−0.2438,−0.1427,−0.1781,−0.49,−0.6715
O=C(Nc1cc(-c2nc3ccccc3s2)ccc1Cl)c1ccc2c(c1)OCO2 [drawing 626],−0.04702,−0.1444,0.02573,0.1301,−0.1679,−0.4411
Cn1c(-c2ccccc2)cc2ccccc21 [drawing 627],0.02349,−0.0996,−0.05693,−0.02616,−0.2661,−0.4026
COc1ccc(C(=O)/C=C2\C(=O)Nc3ccccc32)cc1OC [drawing 628],0.07545,−0.02919,0.1241,0.1545,−0.335,−0.4748
CC(C(=O)Nc1ccc(C#N)cc1)N(C)CC(=O)Nc1cccc(F)c1 (stereo not drawn) [drawing 629],−0.05058,−0.1543,−0.4207,−0.5078,−0.8278,−0.7653
CC(C(=O)Nc1ccc(C#N)cc1)N(C)CC(=O)Nc1cccc(F)c1 (stereo not drawn) [drawing 630],0.01302,−0.06275,0.01684,0.1242,−0.01497,−0.1721
CC1Cc2ccccc2N1C(=O)CSc1nnc(N)s1 (stereo not drawn) [drawing 631],0.1058,−0.02327,0.003792,0.1155,−0.02505,−0.07326
CC(C)(C)NC(=O)NC(=O)CN1CCN(Cc2ccccc2)CC1 [drawing 632],0.1233,−0.06967,−0.04648,0.1725,−0.02695,−0.05859
COc1cc(C=O)ccc1OCC(=O)Nc1ccc2c(c1)OCO2 [drawing 633],0.04105,−0.1736,0.4398,0.09536,−0.06607,−0.1156
Cc1ccccc1NC(=O)c1ccc2c(O)c(Sc3ccccc3)c(=O)[nH]c2c1 [drawing 634],−0.01711,−0.1427,0.008423,−0.03481,−0.0939,−0.1611
Oc1nc(SCc2ccc(Cl)cc2)nc2ccsc12 [drawing 635],0.07667,0.02077,−0.02435,−0.03652,−0.1552,−0.139
CCn1c(=O)c2cc(C(=O)N(C)c3cc(C)ccc3OC)sc2c2ccccc21 [drawing 636],0.06384,−0.07654,−0.2273,−0.2656,−0.396,−0.3923
CCOC(=O)C1=C(NC(=O)c2ccc(OC)c(S(=O)(=O)N3CCCCC3C)c2)Nc2ccccc2N=C1CC (stereo not drawn) [drawing 637],0.1194,0.007377,−0.06112,−0.01618,−0.4913,−0.6556
O=C(NCc1ccccc1)C(c1c(F)cccc1Cl)N(C(=O)c1csnn1)C1CC1 (stereo not drawn) [drawing 638],0.05089,−0.04686,−0.06939,−0.1188,0.4333,−0.4316
Cc1[nH]c2ccc(F)cc2c1CCN(Cc1ccco1)/C(S)=N/C(C)(C)C [drawing 639],0.1665,0.002443,−0.08261,−0.1049,−0.2055,−0.2801
c1ccc(-c2cc(-c3nc4ccccc4[nH]3)c3ccccc3n2)cc1 [drawing 640],0.2113,0.0679,−0.00848,−0.0409,0.08704,−0.1752
CCC(C)n1nc(O)cc1N (stereo not drawn) [drawing 641],0.2618,0.0875,−0.07378,−0.09102,0.1389,0.06802
Cc1ccc(C(=O)N2CCN(S(=O)(=O)N3CCOCC3)CC2)cc1 [drawing 642],0.1086,−0.02563,0.3985,−0.06877,−0.07784,−0.1672
